According to ChEMBL document CHEMBL3351881, “Chemical constituents isolated from Disporum viridescens leaves and their inhibitory effect on nitric oxide production in BV2 microglial cells” (Bioorg Med Chem Lett, 2014):
The source made the active and inactive calls. The calls are words filed in the database; no cut-off is given here.

How the values were obtained:
BV-2 [1] = test: Neuroprotective effect in […] cells assessed as LPS-induced nitric oxide production at 10 to 100 uM incubated for 1 hr prior to LPS challenge measured after 24 hrs by Griess assay; format: functional, cell-based; settings: Mus musculus
BV-2 [2] = test: Inhibition of LPS-induced iNOS protein expression in […] cells at 0.1 uM by Western blotting analysis; format: functional, cell-based
BV-2 [3] = test: Inhibition of LPS-induced COX-2 protein expression in […] cells at 0.1 uM by Western blotting analysis; format: functional, cell-based
BV-2 [4] = test: Inhibition of LPS-induced ERK phosphorylation in […] cells at 0.1 uM by Western blotting analysis; format: cell-based
[5] = biological target: T1, NF-kappa-B inhibitor alpha (Homo sapiens) (UniProt P25963); test: Inhibition of LPS-induced IkB-alpha degradation in […] cells at 0.1 uM by Western blotting analysis; format: cell-based; settings: BV-2
T1 sequence (whole entry): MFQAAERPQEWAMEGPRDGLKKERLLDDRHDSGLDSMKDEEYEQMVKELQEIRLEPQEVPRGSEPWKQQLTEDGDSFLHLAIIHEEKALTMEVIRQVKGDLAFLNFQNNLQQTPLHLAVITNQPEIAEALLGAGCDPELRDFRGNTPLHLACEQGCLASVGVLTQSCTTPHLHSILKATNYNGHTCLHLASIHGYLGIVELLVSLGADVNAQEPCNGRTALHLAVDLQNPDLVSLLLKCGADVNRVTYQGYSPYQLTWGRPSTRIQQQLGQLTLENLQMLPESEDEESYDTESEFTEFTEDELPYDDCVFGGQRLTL

[6] = system: c-Jun N-terminal kinase, JNK (Mus musculus); test: Inhibition of LPS-induced JNK phosphorylation in mouse BV2 cells at 0.1 uM by Western blotting analysis; settings: BV-2
[7] = system: MAP kinase p38 (Mus musculus); test: Inhibition of LPS-induced p38 phosphorylation in mouse BV2 cells at 0.1 uM by Western blotting analysis; settings: BV-2

| inhibition [5] | inhibition [6] | inhibition [7] | SMILES | Activity (BV-2 [1]) | inhibition (BV-2 [2]) | inhibition (BV-2 [3]) | inhibition (BV-2 [4]) |
| --- | --- | --- | --- | --- | --- | --- | --- |
| – | – | – | COc1cc([C@H]2Oc3c(O)cc(CCCO)cc3[C@@H]2CO)ccc1O | Active | Active | Active | – |
| – | – | – | COc1cc([C@H]2Oc3c(OC)cc(CCCO)cc3[C@@H]2CO[C@@H]2O[C@H](CO)[C@@H](O)[C@H](O)[C@H]2O)ccc1O | Active | – | – | – |
| – | – | – | COc1cc([C@H]2OC[C@@]3(O[C@@H]4O[C@H](CO)[C@@H](O)[C@H](O)[C@H]4O)C2CO[C@@H]3c2ccc(O)c(OC)c2)ccc1O (some centres not stated) | Active | – | – | – |
| inactive | Active | Active | COc1cc([C@H]2O[C@H](O)C3C2CO[C@@H]3c2ccc(O)c(OC)c2)ccc1O (some centres not stated) | Active | Active | Active | Active |
